Source: ChEMBL document CHEMBL1201862, “PubChem BioAssay data set” (2004)
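Grown in 96-well plates, cells were treated for 48 hours with each compound at five concentrations. Insufficient inhibition: endpoint recorded as highest concentration tested. GI50 marks 50% less growth.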 The source made the active and inactive calls. Rule as the data show it: active = GI50 up to about 1.1 µM and inactive = higher.

Columns and labels:
Assay in all cases: NCI anticancer screen, dose series, 48 h
786-0 = tested on: 786-0
CCRF-CEM = tested on: CCRF-CEM
HCT-116 = tested on: HCT-116
HCT-15 = tested on: HCT-15
HL-60 = tested on: HL-60
HT-29 = tested on: HT-29
IGROV-1 = tested on: IGROV-1
K562 = tested on: K562
MDA-MB-435 = tested on: MDA-MB-435
MDA-N = tested on: MDA-N
Malme-3M = tested on: Malme-3M
NCI-H460 = tested on: NCI-H460
OVCAR-3 = tested on: OVCAR-3
OVCAR-5 = tested on: OVCAR-5
SF-295 = tested on: SF-295
SK-MEL-28 = tested on: SK-MEL-28
SNB-19 = tested on: SNB-19
SNB-75 = tested on: SNB-75
BT-549 = tested on: BT-549

| SMILES | GI50 (786-0) | GI50 (CCRF-CEM) | GI50 (HCT-116) | GI50 (HCT-15) [µM] | GI50 (HL-60) | GI50 (HT-29) | GI50 (IGROV-1) | GI50 (K562) | GI50 (MDA-MB-435) | GI50 (MDA-N) | GI50 (Malme-3M) | GI50 (NCI-H460) | GI50 (OVCAR-3) | GI50 (OVCAR-5) | GI50 (SF-295) | GI50 (SK-MEL-28) | GI50 (SNB-19) | GI50 (SNB-75) | GI50 (BT-549) |
| --- | --- | --- | --- | --- | --- | --- | --- | --- | --- | --- | --- | --- | --- | --- | --- | --- | --- | --- | --- |
| O=[N+]([O-])C(=C1Nc2ccccc2N1)C(Cl)=C(Cl)Cl | 63.4 µM (inactive) | 32.4 µM (inactive) | 88.1 µM (inactive) | 38.2 | 65.6 µM (inactive) | > 100 µM (inactive) | > 100 µM (inactive) | 81.7 µM (inactive) | 88.1 µM (inactive) | > 100 µM (inactive) | 30.3 µM (inactive) | > 100 µM (inactive) | 18.6 µM (inactive) | > 100 µM (inactive) | > 100 µM (inactive) | > 100 µM (inactive) | > 100 µM (inactive) | < 0.01 µM (active) |  |
| COc1cc2c(OC)c3cc(C)oc(=O)c3c(O)c2c(O)c1-c1c(OC)cc2c(OC)c3cc(C)oc(=O)c3c(O)c2c1O | 22.2 µM (inactive) | 18.6 µM (inactive) | 14.9 µM (inactive) | 18.5 | 15.2 µM (inactive) | 22 µM (inactive) | 14 µM (inactive) | 16.4 µM (inactive) | 18.2 µM (inactive) |  | 17.7 µM (inactive) | 21.6 µM (inactive) | 16.6 µM (inactive) | 19.7 µM (inactive) | 18.6 µM (inactive) | 21.2 µM (inactive) | 25.2 µM (inactive) | 45.1 µM (inactive) | 24.5 µM (inactive) |
| CN(C)/C=C/C(=O)c1cccc(C(=O)/C=C/N(C)C)n1 | > 100 µM (inactive) | > 100 µM (inactive) | > 100 µM (inactive) | > 100 | > 100 µM (inactive) | > 100 µM (inactive) | > 100 µM (inactive) | > 100 µM (inactive) |  |  | > 100 µM (inactive) | > 100 µM (inactive) | > 100 µM (inactive) | > 100 µM (inactive) | > 100 µM (inactive) | > 100 µM (inactive) | > 100 µM (inactive) | > 100 µM (inactive) |  |
| COc1ccc(C2CC(c3ccccc3)=Nc3c(-c4ccccc4)nnn32)cc1 (stereo not given) | > 100 µM (inactive) | > 100 µM (inactive) | 35.5 µM (inactive) | 9.06 | > 100 µM (inactive) | > 100 µM (inactive) | > 100 µM (inactive) | > 100 µM (inactive) | 77.8 µM (inactive) | > 100 µM (inactive) |  | > 100 µM (inactive) | 54.7 µM (inactive) | > 100 µM (inactive) | > 100 µM (inactive) |  | > 100 µM (inactive) |  |  |
| O=C(NC(C(F)(F)F)(C(F)(F)F)P(=O)(c1ccccc1)c1ccccc1)C(C(F)(F)F)C(F)(F)F | 18.9 µM (inactive) | 41.8 µM (inactive) | 18.5 µM (inactive) | 30 | 26.5 µM (inactive) | 14.5 µM (inactive) | 25.7 µM (inactive) | 33.6 µM (inactive) | 18.7 µM (inactive) | 20.4 µM (inactive) | 14.2 µM (inactive) | 42.3 µM (inactive) | 25.8 µM (inactive) | 34.2 µM (inactive) | 48.4 µM (inactive) | 32.9 µM (inactive) | 71.3 µM (inactive) | 20.8 µM (inactive) |  |
| COC(=O)N1C[C@@]2(C=CC3(CC2)OCCO3)c2ccccc21 | > 100 µM (inactive) | 45.2 µM (inactive) | > 100 µM (inactive) | 57.3 | 11.2 µM (inactive) | 28.2 µM (inactive) | 49.1 µM (inactive) | 48 µM (inactive) | 23.7 µM (inactive) | 51.1 µM (inactive) |  | 90.4 µM (inactive) | > 100 µM (inactive) | > 100 µM (inactive) | > 100 µM (inactive) | 67.1 µM (inactive) | > 100 µM (inactive) | 53.6 µM (inactive) |  |
| C[C@]12CCC(N3CCCC3)CC1=CC[C@@H]1[C@@H]2CC[C@]2(C)C(O)[C@H](n3ccnc3)C[C@@H]12 (stereo not given in full) | 41.6 µM (inactive) | 15.7 µM (inactive) | 38.1 µM (inactive) | 20.9 | 5.58 µM (inactive) | 5.85 µM (inactive) | 59.8 µM (inactive) | 27.2 µM (inactive) | 36.6 µM (inactive) | 44.2 µM (inactive) |  | 42.6 µM (inactive) | 32.3 µM (inactive) | 53.8 µM (inactive) | 35.2 µM (inactive) | 26.1 µM (inactive) | > 100 µM (inactive) | > 10 µM (inactive) |  |
| C=C1C(=O)O[C@H]2C/C(C)=C/CC[C@]3(C)CCC[C@](C)(CC[C@@H]12)O3 | 5.77 µM (inactive) | 0.828 µM (active) | 8.69 µM (inactive) | 10.8 |  | 8.26 µM (inactive) | 6.59 µM (inactive) | 8.49 µM (inactive) | 7.01 µM (inactive) | 14.6 µM (inactive) |  | 6.79 µM (inactive) | 9.53 µM (inactive) | 13.7 µM (inactive) | 21.9 µM (inactive) | 7.52 µM (inactive) | 15.8 µM (inactive) | 11.9 µM (inactive) |  |
| CCOC(=O)c1[nH]c(COC(C)=O)c(CCCOC(C)=O)c1CCCOC(C)=O | > 100 µM (inactive) | > 100 µM (inactive) | > 100 µM (inactive) | > 100 | > 100 µM (inactive) | > 100 µM (inactive) | > 100 µM (inactive) | > 100 µM (inactive) |  |  | > 100 µM (inactive) | > 100 µM (inactive) | > 100 µM (inactive) | > 100 µM (inactive) | > 100 µM (inactive) | > 100 µM (inactive) | > 100 µM (inactive) |  |  |
| O=C1OC(c2ccccc2)=N/C1=C/NC(Cc1ccccc1)C(=O)O (stereo not given) | > 100 µM (inactive) | > 100 µM (inactive) | > 100 µM (inactive) | > 100 | > 100 µM (inactive) | > 100 µM (inactive) | > 100 µM (inactive) | > 100 µM (inactive) |  |  | > 100 µM (inactive) | > 100 µM (inactive) | > 100 µM (inactive) | > 100 µM (inactive) | > 100 µM (inactive) | > 100 µM (inactive) | > 100 µM (inactive) | 50.8 µM (inactive) |  |
| COc1cc2nc(Cl)nc(NS(=O)(=O)c3cc4ccccc4s3)c2cc1OC | 35.4 µM (inactive) | 12.1 µM (inactive) | 30.2 µM (inactive) | 36.3 |  | 27.5 µM (inactive) | 27 µM (inactive) | 18.2 µM (inactive) | 22.4 µM (inactive) |  | 32 µM (inactive) | 32.5 µM (inactive) | 19 µM (inactive) | 19.6 µM (inactive) | 33.8 µM (inactive) | 0.0335 µM (active) | 21 µM (inactive) | 23.1 µM (inactive) | 22.9 µM (inactive) |
| Cc1n[nH]c(=O)n1/N=C/c1ccncc1 | > 100 µM (inactive) | > 100 µM (inactive) | > 100 µM (inactive) | > 100 |  | > 100 µM (inactive) | > 100 µM (inactive) | > 100 µM (inactive) | > 100 µM (inactive) | > 100 µM (inactive) | > 100 µM (inactive) | > 100 µM (inactive) | > 100 µM (inactive) | > 100 µM (inactive) | > 100 µM (inactive) | > 100 µM (inactive) | > 100 µM (inactive) | > 100 µM (inactive) |  |
